Reference: PMC5459853, “Cathepsin S inhibition combines control of systemic and peripheral pathomechanisms of autoimmune tissue injury” (Scientific Reports, 2017)
Read-outs that look alike come from different tables or passages of the source.

What was measured:
[1] = molecular target: T1, Cat-S in human purified B-cells (Homo sapiens, UniProt P25774); test: lip10 (p10) accumulation assay in human purified B-cells (p10 ELISA); format: cell-based
T1 construct: Human B-cells were isolated from whole blood; endogenous in cells; host or cells: primary human CD19+ B cells from whole blood of healthy volunteers
T1 sequence (P25774 115-331): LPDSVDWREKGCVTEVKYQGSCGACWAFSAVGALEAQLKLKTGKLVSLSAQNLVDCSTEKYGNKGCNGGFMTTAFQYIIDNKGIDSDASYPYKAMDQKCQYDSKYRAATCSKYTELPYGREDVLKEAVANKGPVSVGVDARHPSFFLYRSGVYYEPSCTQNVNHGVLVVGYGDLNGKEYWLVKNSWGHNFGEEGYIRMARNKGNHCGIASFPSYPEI
Protocol: Human B-cells were isolated from whole blood using the Whole Blood CD19 Microbeads (Cat#130-090-880, Milteny) with the Whole Blood Column Kit (130-093-545, Milteny) according to the instruction leaflet. Isolated B-cells were adjusted to a cell density of 1 × 10^6 cells/ml in RPMI medium containing 10% FCS and 0.05 mM β-Mercaptoethanol (media and supplements are from Gibco). For each condition 100 µl of cell suspension was transferred into one well of a 96 well cell culture plate, respectively. For detection of p10, cells were treated with different concentrations of RO5459072 for 16 h in a cell culture incubator (37 °C; 5% CO2). Afterwards cells were lysed by adding 100 µl 2x NP-40 lysis buffer (20 mM Tris pH 8.0; 137 mM NaCl; 10% glycerol; 1% NP-40; 2 mM EDTA) containing HALT Protease inhibitor (Cat#78429, Pierce) for 30 min on ice. Before detection of accumulated p10-MHC-II complexes, interfering Ii-MHC-II associates were removed from the cell lysates. […] The CD74-18/3 antibody detects uncleaved invariant chain MHC-II complexes only. Afterwards p10-MHC-II complexes were analyzed by ELISA. For this purpose black Maxisorp plates from NUNC have been coated o/n with PIN.1 (5 µg/ml) from abcam (Cat#ab22603). The next day plates were blocked with blocking buffer for 1 h at 37 °C. Lysates containing 25,000 B-cells per condition were transferred to each well of the ELISA plate respectively and incubated together with the secondary antibody CD74-3/5-Biotin (15 ng/ml) o/n at 4 °C on a shaker. For signal amplification samples were incubated for 30 min with High Sensitive Streptavidin-HRP, 50 ng/ml (Cat#21134, Pierce). The amount of p10 was detected after 30 min of incubation with the QuantaBluTM Fluorogenic Substrate (Cat#15162, Pierce) at 325 nm excitation and 420 nm emission. In between each procedure of the ELISA assay the plates were washed twice with PBS−/− containing 0.05% TWEEN-20.
Supplementary figure 1. Biochemical and pharmacological profile of R05459072. (A)
Upregulation of invariant chain p10 levels in human B-cells was estimated by p10 ELISA, upon
treatment with increasing concentration of RO5459072.
upregulation in B-cells derived from 6 healthy volunteers. […]

Human Cat-B = Human Cat-B (Homo sapiens, UniProt P07858); test: Enzymatic isoform-selectivity assay, Cat-B; format: biochemical
Protocol: (§1) RO5459072 was provided by F. Hoffmann-La Roche, Ltd., Basel, Switzerland. It is a competitive inhibitor of the active site of Cat-S and its nitrile function allows covalent reversible inhibition of Cat-S. The synthesis of RO5459072 has been described in WO 2010121918 and WO 2013068434. Recombinant cathepsins were produced in-house or were purchased from commercial vendors. Initial enzymatic assays to determine isoform-selectivity in vitro were performed as previously described, [23]. […] For this the Cat-S-dependent hydrolysis of the fluorogenic substrate Z-Phe-Arg-AMC (Sigma Aldrich) was followed at various inhibitor concentrations. The active fraction of Cat-S was detemined as 70% with a HPLC assay measuring modification of Cat-S with the covalent inhibitor LHVS. The buffer (100 mM potassium phosphate, 50 mM NaCl, 5 mM EDTA, 5 mM TCEP, pH 6) was thoroughly degassed prior to perfoming measurements to prevent oxidation of the catalytic cystein residue by dissolved oxygen. For the Ki-determination the substrate was employed at 10 µM = KM. All kinetic measurements were performad on a SFM-3000 stopped-flow instrument (Bio-Logic Science Instruments) and data were analyzed with GraphPad Prism v5.

Mouse Cat-S = Mouse Cat-S (Mus musculus, UniProt O70370); test: Enzymatic isoform-selectivity assay, mouse Cat-S; format: biochemical; conditions: read-out: apparent IC50, murine Cat-S
Protocol: as §1

Human Cat-V = Human Cat-V (Homo sapiens, UniProt O60911); test: Enzymatic isoform-selectivity assay, Cat-V; format: biochemical; conditions: read-out: apparent IC50, Cat V
Chain of Human Cat-V (O60911 114-334): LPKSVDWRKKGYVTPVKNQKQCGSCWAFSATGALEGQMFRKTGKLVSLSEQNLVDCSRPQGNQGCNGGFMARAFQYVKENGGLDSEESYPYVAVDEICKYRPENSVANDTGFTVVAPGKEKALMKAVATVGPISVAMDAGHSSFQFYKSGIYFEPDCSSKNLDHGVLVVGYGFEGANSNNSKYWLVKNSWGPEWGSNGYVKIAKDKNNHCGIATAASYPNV
Protocol: as §1

[2] = molecular target: T2, Cat-S (splenic p10 induction) (Mus musculus, UniProt O70370); test: Acute in vivo pharmacodynamics: splenic p10 induction after oral gavage; set-up: species or system BALB/c mice
T2 construct: from tissue; host or cells: mouse spleen / splenocytes after oral dosing
Protocol: For the determination of in-vivo enzyme inhibition activity of Cat-S by RO5459072 BALB/c mice were used. After oral dosing of 0.1 mg/kg to 100 mg/kg of RO5459072, mice were sacrificed after 7 hours and spleens harvested. Invariant chain was quantified by western blot from mouse splenocyte supernatants loaded onto 10% SDS-PAGE gel. Upon transfer onto a nitrocellulose membrane rabbit anti-CD74 (BD Biosciences) was used.
Supplementary figure 1. Biochemical and pharmacological profile of R05459072. (A) Upregulation of invariant chain p10 levels in human B-cells was estimated by p10 ELISA, upon treatment with increasing concentration of RO5459072. […]
upregulation in B-cells derived from 6 healthy volunteers. (B) Determination of KM for the fluorogenic substrate Z-Phe-Arg-AMC. (C) Progress curves of hydrolysis of 10 µM Z-Phe-Arg-AMC by 10 nM Cat-S in the presence of no (black dots) or increasing concentration of RO5459072. A linear equation was fitted to the data to determine the slope (solid lines). […]
the residuals of the fit to the data. (D) Secondary plot of the slopes from panel B as function of RO5459072 concentration (dots with color coding from panel B). The Morrison equation was […]
active Cat-S converged to [E]0 = 6.9 nM). The dashed red lines indicate the 95 % confidence intervals of the fit to the data. (E) Pharmacodynamics of R05459072 was determined in C57Bl6 mice with increasing amounts of compound as single dose. Plasma levels of compounds were correlated to the upregulation of p10 in spleenocytes.
Supplementary figure 2. FACS gating strategies used for the different splenic immune cell populations. (A-C) Activated dendritic cells CD11c+CD11b+MHC-II, (D-F) activated macrophages CD11c+F480+MHC-II and (G-H) plasma cells CD138+κ-light chain+
Supplementary figure 3. Plasma IgG isotypes in MRL-(Fas)lpr mice. Plasma levels of IgG1 (A), IgG2a (B), and IgG2b (C) were determined by ELISA at different time points from the initiation (week 11) to the end of treatment (week 19). Data are expressed as means ± SEM (n=8 to 10 in […]

In the case of `Cn1cc(-c2ccc(S(=O)(=O)[C@@H]3C[C@@H](C(=O)NC4(C#N)CC4)N(C(=O)C4(C(F)(F)F)CC4)C3)c(C(F)(F)F)c2)cn1` [RO5459072], the EC50 ([1]; average of 6 healthy volunteers, 16 h treatment, read-out: EC50 of lip10 (p10) induction in human B-cells, average) is reported as 15.8 nM, the EC50 ([1]; donor D1, read-out: EC50 of p10 upregulation in human B-cells, donor D1) is reported as 26.4 nM and the EC50 ([1]; donor D2, read-out: EC50 of p10 upregulation in human B-cells, donor D2) is reported as 15.8 nM. It also gave an EC50 ([1]; donor D3, read-out: EC50 of p10 upregulation in human B-cells, donor D3) of 19.1 nM, an EC50 ([1]; donor D4, read-out: EC50 of p10 upregulation in human B-cells, donor D4) of 9.4 nM and an EC50 ([1]; donor D5, read-out: EC50 of p10 upregulation in human B-cells, donor D5) of 12.6 nM. The EC50 ([1]; donor D6, read-out: EC50 of p10 upregulation in human B-cells, donor D6) was 11.5 nM, the IC50 (Human Cat-B) was over 1000 nM and the “IC50, Human Cat-B” value (Human Cat-B) was “No sub-micro molar inhibition”. For the same molecule, the IC50 (Mouse Cat-S) was 0.3 nM, the IC50 (Human Cat-V) was 700 nM and the “dose of maximal splenic p10 induction” value ([2]; oral gavage, single doses 0.1–100 mg/kg, spleens after 7 hours) was 1 mg/kg. It also gave an EC50 ([2]; single oral dose, mice, read-out: p10/li in vivo EC50 (plasma level vs p10 upregulation in splenocytes)) of 17 nM.
